These results are taken from patent publication US8193372B2, “Phosphothiophene and phosphothiazole HCV polymerase inhibitors” (Idenix Pharmaceuticals, Inc., priority 2009, dated 2012).

Broadly, the IC50 is the concentration needed to halve the response being measured. High values mean a need for much substance, low ones inhibition by little substance. Broadly, the EC50 is the concentration giving half of the maximal effect. A higher EC50 goes with weaker potency.

Data set [1] relates to HCV Con1 subgenomic replicon of genotype 1b (GS4.1 cells). As to the kind of experiment: microbe, parasite or virus in culture. Format: cell-based, HCV genotype 1b. The settings on record: Hepatitis C virus; for EC50: 72 h.
In data set [2] the test system is Huh-7-derived cell line (Zluc) that harbors an HCV genotype 1b replicon and a luciferase reporter gene. As to the kind of experiment: microbe, parasite or virus in culture. Format: cell-based. The settings on record: Hepatitis C virus, 72 h.
For data set [3] the test system is unchanged. The data set can be described thus: microbe, parasite or virus in culture. Particulars: Hepatitis C virus, 72 h. The data set is classed as cell-based. This is another data set of the same source.
Another data set is described as follows: in vitro. The settings on record: human.
Data set [4] in a line: Cytotoxicity (CC50) reported with the HCV replicon ELISA assay. Particulars: human. (A replicon is a self-replicating genome or part of one, used to study replication in cells.)

In the case of `CCOP(=O)(Nc1cc(-c2ccc(-c3cc4ncccn4n3)cc2)sc1C(=O)O)c1ccc(Cl)cc1Cl` (centres unmarked) [Compound 11, 3-N-[(2,4-dichloro-phenyl)-phosphonamidateethyl ester]-5-(4-pyrazolo[1,5-a]pyrimidin-2-ylphenyl)-2-thiophenecarboxylic acid], the IC50 in data set [1] was less than 0.1 µM. Besides, the EC50 is less than 0.1 µM in data set [1], less than 0.1 µM in data set [2] and 0.1 to 8.3 µM in data set [3]. The molecule further displayed a CC50 in the data set “in vitro” of more than 8.3 µM.

For the molecule `COP(=O)(Nc1cc(-c2ccc(F)cc2)sc1C(=O)O)c1ccc(C)cc1C` (centres unmarked) [Compound 21, 2-Thiophenecarboxylic acid, 3-N-[(2,4-dimethyl-phenyl)-phosphonamidatemethyl ester]-5-(4-fluorophenyl)], in data set [1], the IC50 was in the range of 0.1 to 8.3 µM. Besides, the EC50 in data set [1] is 0.1 to 8.3 µM; in data set [2] it was 0.1 to 8.3 µM; in data set [3], more than 8.3 µM. In addition, the CC50 in the data set “in vitro” was more than 8.3 µM.

In data set [1], `CCOP(=O)(Nc1cc(-c2ccc(C#Cc3cscn3)cc2)sc1C(=O)O)c1ccc(Cl)cc1Cl` (centres unmarked) [Compound 24, 3-N-[(2,4-dichloro-phenyl)-phosphonamidateethyl ester]-5-(4-phenyl-ethynyl-1,3-thiazole)-2-thiophenecarboxylic acid] yielded an IC50 of less than 0.1 µM. The EC50 in data set [1], in data set [2] and in data set [3] was 0.1 to 8.3 µM each time. In the data set “in vitro”, the CC50 is more than 8.3 µM.

On to `COP(=O)(c1ccc(C)cc1C)N(C)c1cc(-c2ccc(F)cc2)sc1C(=O)O` (centres unmarked) [Compound 32, 2-Thiophenecarboxylic acid, 3-N-methyl-N-[(2,4-dimethyl-phenyl)-phosphonamidatemethyl ester]-5-(4-fluorophenyl)], for which the IC50 in data set [1] lay in the range of 0.1 to 8.3 µM. Also, the figures for the half-maximal effective concentration (EC50) in data set [1], in data set [2] and in data set [3] were 0.1 to 8.3 µM, 0.1 to 8.3 µM and more than 8.3 µM, respectively. In “in vitro”, this molecule displayed a CC50 of more than 8.3 µM.

As for `Cc1ccc(P(=O)(Nc2cc(-c3ccc(Cl)cc3)sc2C(=O)O)OC2CCOC2)c(C)c1` (centres unmarked) [Compound 94], in data set [1], the IC50 is 0.1 to 8.3 µM and the EC50 lay within 0.1 to 8.3 µM. In addition, in data set [4], the CC50 at 72 hr is more than 8.3 µM.

With `COC1CCC(OP(=O)(Nc2cc(-c3ccc(Cl)cc3)sc2C(=O)O)c2ccc(C)cc2C)CC1` (centres unmarked) [Compound 95], in data set [1], the 50% inhibitory concentration (IC50) is 0.1 to 8.3 µM and the concentration for a half-maximal effect (EC50) lay within 0.1 to 8.3 µM. The molecule further showed a CC50 at 72 hr in data set [4] of more than 8.3 µM.

In data set [1], `Cc1ccc(P(=O)(Nc2cc(-c3ccc(Cl)cc3)sc2C(=O)O)OCc2ccccc2)c(C)c1` (centres unmarked) [Compound 107] returned a concentration for a half-maximal effect (EC50) of 0.1 to 8.3 µM. In addition, the CC50 at 72 hr in data set [4] was more than 8.3 µM.

For `CCOCCOP(=O)(Nc1cc(-c2ccc(Cl)cc2)sc1C(=O)O)c1ccc(C)cc1C` (centres unmarked) [Compound 130], in data set [1], the IC50 was in the range of 0.1 to 8.3 µM. This molecule also showed a CC50 at 72 hr in data set [4] of more than 8.3 µM.

For `Cc1ccc(P(=O)(Nc2cc(-c3ccc(Cl)cc3)sc2C(=O)O)OC2CCOCC2)c(C)c1` (centres unmarked) [Compound 135], in data set [1], the concentration for half-maximal inhibition (IC50) is less than 0.1 µM and the concentration giving a half-maximal response (EC50) lay within 0.1 to 8.3 µM. The molecule also yielded a CC50 at 72 hr in data set [4] of more than 8.3 µM.

In data set [1], `CCCCOP(=O)(Nc1cc(-c2ccc(Cl)cc2)sc1C(=O)O)c1ccc(C)cc1C` (centres unmarked) [Compound 137] yielded a half-maximal inhibitory concentration (IC50) of 0.1 to 8.3 µM and an EC50 of 0.1 to 8.3 µM. The CC50 at 72 hr in data set [4] was more than 8.3 µM.

In turn, `COP(=O)(Nc1cc(-c2ccc(-c3cc4ncccc4o3)cc2)sc1C(=O)O)c1ccc(C)cc1C` (centres unmarked) [Compound 152] had an IC50 in data set [1] of less than 0.1 µM. For the same molecule, the EC50 in data set [1], in data set [2] and in data set [3] was less than 0.1 µM in each case. The molecule further yielded a CC50 in the data set “in vitro” of more than 8.3 µM.

In the case of `COP(=O)(Nc1cc(-c2ccc(-c3cc4ccccc4s3)cc2)sc1C(=O)O)c1ccc(C)cc1C` (centres unmarked) [Compound 153], the IC50 in data set [1] was less than 0.1 µM. Also, the EC50 in data set [1] was less than 0.1 µM; in data set [2] it was less than 0.1 µM; in data set [3], 0.1 to 8.3 µM. The same molecule registered a CC50 in “in vitro” of more than 8.3 µM.

With `COP(=O)(Nc1cc(-c2ccc(Cl)cc2)sc1C(=O)O)c1ccc(C)cc1C` (centres unmarked) [Compound 155], in data set [1], the IC50 is less than 0.1 µM. Moreover, the EC50 in data set [1] is 0.1 to 8.3 µM; in data set [2], 0.1 to 8.3 µM; in data set [3], more than 8.3 µM. In “in vitro”, this molecule displayed a CC50 of more than 8.3 µM.

For the molecule `COP(=O)(Nc1cc(-c2ccc(C(C)(C)C)cc2)sc1C(=O)O)c1ccc(C)cc1C` (centres unmarked) [Compound 156], in data set [1], the IC50 fell in the range of 0.1 to 8.3 µM. In addition, the results for the EC50 in data set [1], in data set [2] and in data set [3] were 0.1 to 8.3 µM, 0.1 to 8.3 µM and more than 8.3 µM, respectively. Moreover, the CC50 in the data set “in vitro” is more than 8.3 µM.

In data set [1], `CCOP(=O)(Nc1cc(-c2ccc(-c3cc4ncccc4o3)cc2)sc1C(=O)O)c1ccc(Cl)cc1F` (centres unmarked) [Compound 160] registered an IC50 of less than 0.1 µM. Also, the values for the EC50 in data set [1], in data set [2] and in data set [3] were less than 0.1 µM, less than 0.1 µM and 0.1 to 8.3 µM, respectively. This molecule also had a CC50 in “in vitro” of more than 8.3 µM.

`COP(=O)(Nc1cc(-c2ccccc2)sc1C(=O)O)c1ccc(C)cc1C` (centres unmarked) [Compound 162]: the EC50 in data set [2] was 0.1 to 8.3 µM; in data set [3], more than 8.3 µM.

Consider `COP(=O)(Nc1cc(-c2ccc(-c3cc4ncccn4n3)cc2)sc1C(=O)O)c1ccc(C)cc1C` (centres unmarked) [Compound 169], for which the EC50 in data set [2] and in data set [3] was less than 0.1 µM in each case.

As for `COC(=O)c1sc(-c2ccc(F)cc2)cc1NP(=O)(OC(C)C)c1ccc(C)cc1C` (centres unmarked) [Compound 171], in data set [1], the IC50 was more than 8.3 µM and the EC50 is more than 8.3 µM. The molecule further came in with a CC50 at 72 hr in data set [4] of more than 8.3 µM.
